Measured values reported in PubChem BioAssay (NCI).
Values joined by “and” are separate entries in the source; they are usually repeats but may differ in a detail not shown here. Identical values can stand only once.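 Tested at 5 concentrations; 48 h exposure; 96-well plates; endpoints linearly interpolated, else capped at highest concentration. At the GI50, growth is halved. TGI is the concentration that stops growth completely.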

Legend:
Assay in all cases: DTP human tumour cell line panel, 48 h
[1] = tested on: DU-145 prostate
[2] = tested on: LOX IMVI melanoma
[3] = tested on: MDA-MB-435
[4] = tested on: NCI-H23 lung
[5] = tested on: RXF 393 renal
[6] = tested on: SF-539 CNS
[7] = tested on: T-47D breast
[8] = tested on: TK-10 renal
[9] = tested on: UACC-257 melanoma
[10] = tested on: UO-31 renal

## O=C(Cn1c(C(=O)c2ccc(Cl)cc2)nc(-c2ccc(Cl)cc2)c1-c1ccc(Cl)cc1)c1ccccc1
[1]
  GI50: > 100 µM
  TGI: > 100 µM
[2]
  GI50: > 100 µM
  TGI: > 100 µM
[3]
  GI50: > 100 µM
  TGI: > 100 µM
[4]
  GI50: > 100 µM
  TGI: > 100 µM
[5]
  GI50: > 100 µM
  TGI: > 100 µM
[6]
  GI50: > 100 µM
  TGI: > 100 µM
[7]
  GI50: > 100 µM
  TGI: > 100 µM
[8]
  GI50: > 100 µM
  TGI: > 100 µM
[9]
  GI50: > 100 µM
  TGI: > 100 µM
[10]
  GI50: > 100 µM
  TGI: > 100 µM

## Cc1ccccc1C1=C(c2cn(C)c3ccccc23)C(=O)NC1=O
[1]
  GI50: 23.7 µM
  TGI: > 25 µM
[2]
  GI50: 14.9 µM
  TGI: > 25 µM
[3]
  GI50: > 21.5 µM
  TGI: > 25 µM
[4]
  GI50: > 25 µM
  TGI: > 25 µM
[5]
  GI50: 7.02 µM
  TGI: > 25 µM
[6]
  GI50: 13.7 µM
  TGI: > 25 µM
[7]
  GI50: 17.8 µM
  TGI: > 25 µM
[8]
  GI50: > 25 µM
  TGI: > 25 µM
[9]
  GI50: > 25 µM
  TGI: > 25 µM
[10]
  GI50: > 25 µM
  TGI: > 25 µM

## COc1ccc(/C=C/C(=O)c2c(O)ccc3c(C)c(C(=O)O)oc23)cc1
[1]
  GI50: > 100 µM
  TGI: > 100 µM
[2]
  GI50: 35.6 µM
  TGI: > 100 µM
[3]
  GI50: 50.5 µM
  TGI: > 100 µM
[4]
  GI50: 74.2 µM
  TGI: > 100 µM
[5]
  GI50: 55.5 µM
  TGI: > 100 µM
[6]
  GI50: 35.6 µM
  TGI: > 100 µM
[7]
  GI50: 64.7 µM
  TGI: > 100 µM
[8]
  GI50: > 100 µM
  TGI: > 100 µM
[9]
  GI50: 84.9 µM
  TGI: > 100 µM
[10]
  GI50: > 100 µM
  TGI: > 100 µM

## O=Cc1cccc2ccc3ccccc3c12
[1]
  TGI: > 100 µM
[2]
  TGI: 45.9 µM
[3]
  TGI: 49.6 µM
[4]
  TGI: 66.5 µM
[5]
  TGI: 61 µM
[6]
  TGI: 23 µM
[7]
  TGI: 92.4 µM
[8]
  TGI: 40.2 µM
[9]
  TGI: > 100 µM
[10]
  TGI: > 100 µM

## CS(=O)(=O)CCNCc1ccc(-c2ccc3ncnc(Nc4ccc(OCc5cccc(F)c5)c(Cl)c4)c3c2)o1
[1]
  GI50: 7.11 µM and 2.61 µM and 6.75 µM
  TGI: > 10 µM and > 100 µM and 34.8 µM
[2]
  GI50: 8.23 µM and 1.79 µM and 4.19 µM
  TGI: > 10 µM and 3.35 µM and 10.1 µM
[3]
  GI50: > 10 µM and 4.38 µM and 7.84 µM
  TGI: > 10 µM and > 30.8 µM and 34.1 µM
[4]
  GI50: > 10 µM and 7.82 µM and 10.4 µM
  TGI: > 10 µM and > 100 µM and 31.1 µM
[5]
  GI50: 8.01 µM and 2.05 µM and 1.79 µM
  TGI: > 10 µM and 4.5 µM and 7.05 µM
[6]
  GI50: > 10 µM and 9.11 µM and 7.5 µM
  TGI: > 10 µM and 98.1 µM and 29.9 µM
[7]
  TGI: > 10 µM and > 100 µM and 37.6 µM
[8]
  GI50: 0.17 µM and 0.176 µM and 0.0385 µM
  TGI: > 10 µM and > 100 µM and 11.2 µM
[9]
  GI50: > 10 µM and 1.97 µM and 3.1 µM
  TGI: > 10 µM and 3.75 µM and 6.52 µM
[10]
  GI50: 2.39 µM and 0.807 µM and 1.08 µM
  TGI: > 10 µM and > 33 µM and 26.2 µM

## COc1cc(OC)cc(Oc2cnc3cc(N)cc(N)c3n2)c1
[1]
  GI50: 17.6 µM
  TGI: 38.5 µM
[2]
  GI50: 11.5 µM
  TGI: 24 µM
[3]
  GI50: 2.87 µM
  TGI: 6.76 µM
[4]
  GI50: 14.6 µM
  TGI: 28.8 µM
[5]
  GI50: 15.4 µM
  TGI: 29 µM
[6]
  GI50: 21.3 µM
  TGI: 43.7 µM
[7]
  GI50: 13.6 µM
  TGI: 42.4 µM
[8]
  GI50: 16.6 µM
  TGI: 38.5 µM
[9]
  GI50: 18 µM
  TGI: 33.7 µM
[10]
  GI50: 22.3 µM
  TGI: 46.8 µM

## CCc1ccccc1NC(=O)C(C#N)C1=C(Cl)C(=O)c2ccccc2C1=O (configuration not stated)
[1]
  TGI: 32.2 µM
[2]
  TGI: 26.9 µM
[3]
  TGI: 63 µM
[4]
  TGI: 29.5 µM
[5]
  TGI: 43.1 µM
[6]
  TGI: 37.2 µM
[7]
  TGI: 52.4 µM
[8]
  TGI: 33.7 µM
[9]
  TGI: 31.8 µM
[10]
  TGI: 26.6 µM

## CN1CC=C(c2cc(NC(=O)Nc3ccc(Oc4ccnc(NC(=O)C5CC5)c4)c(F)c3)cc(C(F)(F)F)c2)CC1
[1]
  GI50: 0.212 µM
  TGI: 1.62 µM
[2]
  GI50: 0.181 µM
  TGI: 0.645 µM
[3]
  GI50: 0.429 µM
  TGI: 1.17 µM
[4]
  GI50: 0.172 µM
  TGI: 0.712 µM
[5]
  GI50: 0.172 µM
  TGI: 0.411 µM
[6]
  GI50: 0.888 µM
  TGI: 1.86 µM
[7]
  GI50: 1.37 µM
  TGI: 3.99 µM
[8]
  GI50: 1.62 µM
  TGI: 3.91 µM
[9]
  GI50: 1.34 µM
  TGI: 3.24 µM
[10]
  GI50: 1.58 µM
  TGI: 3.57 µM

## COc1cc(-c2cc3ncccc3c3nc(OCCN(C)C)c4cccnc4c23)cc(OC)c1OC
[1]
  GI50: 0.5 µM
  TGI: > 100 µM
[2]
  GI50: 0.275 µM
  TGI: 1.26 µM
[3]
  GI50: 0.671 µM
  TGI: 3.75 µM
[4]
  GI50: 0.619 µM
  TGI: 3.31 µM
[5]
  GI50: 0.473 µM
  TGI: 2.07 µM
[6]
  GI50: 0.741 µM
  TGI: 3.39 µM
[7]
  GI50: 0.769 µM
  TGI: 37 µM
[8]
  GI50: 0.294 µM
  TGI: 1.39 µM
[9]
  GI50: 0.567 µM
  TGI: 4.06 µM
[10]
  GI50: 0.28 µM
  TGI: 1.32 µM

## Cc1ccc(F)c(NC(=O)Nc2ccc(-c3cccc4[nH]nc(N)c34)cc2)c1
[1]
  GI50: 3.68 µM and 3.37 µM
  TGI: 13.1 µM and > 10 µM
[2]
  GI50: 1.8 µM and 2.03 µM
  TGI: 3.62 µM and 4.97 µM
[3]
  GI50: 2.68 µM and 2.88 µM
  TGI: 11 µM and > 10 µM
[4]
  GI50: 2.4 µM and 3.41 µM
  TGI: 6.17 µM and > 10 µM
[5]
  GI50: 1.96 µM and 1.92 µM
  TGI: 4.34 µM and 4.96 µM
[6]
  GI50: 1.61 µM and 1.52 µM
  TGI: 6.67 µM and > 10 µM
[7]
  GI50: 3.62 µM and 2.89 µM
  TGI: 17.3 µM and > 10 µM
[8]
  GI50: 3.6 µM and 2.84 µM
  TGI: 14.6 µM and > 10 µM
[9]
  GI50: 4.39 µM and 5.34 µM
  TGI: 16.7 µM and > 10 µM
[10]
  GI50: 2.79 µM and 2.91 µM
  TGI: 11.3 µM and > 10 µM

## Oc1cc(N2CC2)c(O)cc1N1CC1
[1]
  GI50: 0.254 µM
  TGI: 1.37 µM
[2]
  GI50: 0.322 µM
  TGI: 2.42 µM
[3]
  GI50: 1.37 µM
  TGI: 3.32 µM
[4]
  GI50: 0.396 µM
  TGI: 1.8 µM
[5]
  GI50: 0.358 µM
  TGI: 1.21 µM
[6]
  GI50: 0.389 µM
  TGI: 2.38 µM
[7]
  GI50: 1.1 µM
  TGI: 6.48 µM
[8]
  GI50: 1.27 µM
  TGI: 9.35 µM
[9]
  GI50: 0.851 µM
  TGI: 2.98 µM
[10]
  GI50: 0.164 µM
  TGI: 0.818 µM

## O=C(/C=C/C12c3ccccc3C(c3ccccc31)C1C(=O)N(c3ccc(Cl)cc3)C(=O)C12)c1ccccn1 (configuration not stated)
[1]
  GI50: 0.283 µM
  TGI: 0.747 µM
[2]
  GI50: 0.177 µM
  TGI: 0.358 µM
[3]
  GI50: 0.301 µM
  TGI: 0.981 µM
[4]
  GI50: 0.342 µM
  TGI: 1.36 µM
[5]
  GI50: 0.187 µM
  TGI: 0.448 µM
[6]
  GI50: 0.258 µM
  TGI: 0.676 µM
[7]
  GI50: 0.312 µM
  TGI: 4.15 µM
[8]
  GI50: 1.46 µM
  TGI: 4.87 µM
[9]
  GI50: 0.39 µM
  TGI: 1.96 µM
[10]
  GI50: 0.178 µM
  TGI: 0.399 µM

## N#CC1C[C@@H]2CC3(CCC2CN1C(=O)c1ccccc1)OCCO3 (some centres not stated)
[1]
  GI50: > 100 µM
  TGI: > 100 µM
[2]
  TGI: > 100 µM
[3]
  GI50: > 100 µM
  TGI: > 100 µM
[4]
  TGI: > 100 µM
[5]
  TGI: > 100 µM
[6]
  TGI: > 100 µM
[7]
  GI50: > 100 µM
  TGI: > 100 µM
[8]
  TGI: > 100 µM
[9]
  TGI: > 100 µM
[10]
  TGI: > 100 µM
